Type in all cases: cell-based
In test [1] the test system is Bacillus subtilis (ATCC 23857). Description: MIC determination, microbroth dilution. The settings on record: ATCC23857; Bacillus subtilis (ATCC 23857); read-out: MIC B.s.
The subject of test [2] is acinetobacter baumannii (ATCC 19606). Description: MIC determination, microbroth dilution. The settings on record: ATCC19606. A general note: Dilution methods test growth across graded concentrations, often in twofold steps.
Test [3] deals with Streptococcus pyogenes (ATCC 700294). Kind of test: MIC determination, microbroth dilution. The note with it: ATCC700294; Streptococcus pyogenes (ATCC 700294); read-out: MIC S. py.
Test [4] concerns Neisseria gonorrhoeae (ATCC 49226). Kind of test: Disc diffusion assay. The note with it: ATCC49226, 4 μg per disc, read-out: Zone of inhibition N.g. Background: In agar diffusion tests the substance spreads into inoculated agar from a disc or well.
The subject of test [5] is Pseudomonas aeruginosa (PA01). Description: MIC determination, microbroth dilution.
Test [6] deals with Bacillus anthracis, Sterne 34F2. Description: microbe, parasite or virus in culture. The settings on record: STERNE34F2, read-out: MIC B.a.
The subject of test [7] is Klebsiella pneumoniae (ATCC 33495). Description: MIC determination, microbroth dilution. The note with it: ATCC33495.
For test [8], the system named is Burkholderia cepacia (ATCC 25416). Kind of test: MIC determination, microbroth dilution. The note with it: Burkholderia cepacia.
In test [9] the test system is Streptococcus pneumoniae (R6). Description: MIC determination, microbroth dilution. The note with it: Streptococcus pneumoniae (R6); read-out: MIC S. pn.
Test [10] deals with Escherichia coli (ATCC 700926). Description: MIC determination, microbroth dilution. The note with it: ATCC700926; Escherichia coli (ATCC 700926); read-out: MIC E.c. Here is the method:
MICs were determined using the microbroth dilution method according to Clinical Laboratory Standards Institute (CLSI; National, C. F. C. L. S., Methods for Dilution Antimicrobial Susceptibility Tests for Bacteria Grow aerobically-Seventh Edition: Approved Standard M7-A7, CLSI, Wayne, Pa., USA, 2008) and were read by visual inspection. Two fold serial dilutions of antibiotic in 100 μL of the appropriate broth media were first prepared in 96-well round bottom microtiter plates (Nalge Nunc International, Rochester, N.Y., USA). An equivalent volume (100 μL) of bacterial broth inocula containing approximately 10^5 bacterial cfu/mL was added to each well to give final concentrations of drug starting at 200 μg/mL and the plates were incubated aerobically at 37° C. M. tuberculosis microtiter plates were incubated for 7 days and all other strains were incubated overnight. After incubations, in all cases the MIC was recorded as the lowest concentration of drug that prevented bacterial growth.

The subject of test [11] is Proteus mirabilis (ATCC 25933). Kind of test: MIC determination, microbroth dilution. The note with it: ATCC25933.
The subject of test [12] is Legionella pneumophila (ATCC 33153). Description: microbe, parasite or virus in culture. The settings on record: ATCC33153, 72 h, read-out: Zone of inhibition L.p.
Test [13] has as its system Stenotrophomonas maltophilia (ATCC 13637). Kind of test: MIC determination, microbroth dilution. The settings on record: ATCC13637; Stenotrophomonas maltophilia (ATCC 13637); read-out: MIC S.m.
Test [14] deals with Staphylococcus aureus (ATCC 29213). Description: MIC determination, microbroth dilution. The settings on record: ATCC29213; Staphylococcus aureus (ATCC 29213); read-out: MIC S.a.
For test [15], the system named is Haemophilus influenza (ATCC 49247). Kind of test: microbe, parasite or virus in culture. The note with it: ATCC49247; Haemophilus influenza; 4 μg per disc; range of at least two experiments; read-out: Zone of inhibition H.i.
In test [16] the test system is MRSA, Staphylococcus aureus (NRS70). Description: MIC determination, microbroth dilution. The note with it: Staphylococcus aureus (NRS70); read-out: MIC MRSA.
The subject of test [17] is E. coli K12 ΔtolC. Description: microbe, parasite or virus in culture. The note with it: Escherichia coli, read-out: MIC E.c. Δtolc.
Test [18] relates to Proteus vulgaris (ATCC 33420). Description: MIC determination, microbroth dilution. The note with it: ATCC33420.
Test [19] relates to M. tuberculosis clinical isolates. Description: microbe, parasite or virus in culture. The note with it: Mycobacterium tuberculosis.
Test [20] relates to Neisseria meningitides (ATCC 13077). Description: Disc diffusion assay. The note with it: ATCC13077, 4 μg per disc, read-out: Zone of inhibition N.m.
The test system of test [21] is Listeria monocytogenes. Description: MIC determination (Table 6).
Test [22] relates to Moraxella catarrhalis. Description: MIC determination (Table 6).
Test [23] deals with Bacillus anthracis. Kind of test: microbe, parasite or virus in culture. The settings on record: read-out: MIC B.a.
The test system of test [24] is Enterococcus faecalis (ATCC 33186). Description: MIC determination, microbroth dilution. The settings on record: ATCC33186; Enterococcus faecalis (ATCC 33186); read-out: MIC E.f.
The mark [25] stands for this setting: ATCC25416, read-out: MIC B.c., Burkholderia cepacia (ATCC 25416).
The mark [26] stands for this setting: ATCC25416, read-out: MIC B.c., Burkholderia cepacia, Table 6.

Here are results for six compounds from US10266544B2, “Aryl substituted aminomethyl spectinomycin analogs as antibacterial agents” (ST. JUDE CHILDREN'S RESEARCH HOSPITAL, INC., priority 2013, dated 2019).

The term zone of inhibition denotes the extent of the growth-free halo in a diffusion test.

Converted amounts (≈) assume the structure as drawn. Counter-ions that a name gives are not always drawn. Like-named read-outs stand apart in the source and are kept apart here. Where only a bound is given, the exact number is not on record here.

On to `CN[C@@H]1[C@H](O)[C@H](NC)[C@H]2O[C@]3(O)[C@H](O[C@@H]2[C@H]1O)O[C@H](C)C[C@@]3(O)CNc1ccc(F)cc1` [compound 31, 3′-(R)-3′-[(4-fluoro)phenylaminomethyl)]dihydrospectinomycin Trihydrochloride], for which the MIC is 200 µg/mL in test [1]; more than 200 µg/mL in test [2]; 12.5 to 25 µg/mL in test [3]; more than 200 µg/mL in test [5]; 200 µg/mL in test [6]; more than 200 µg/mL in [7]. Further, the MIC in [8] (setting [25]) is more than 200 µg/mL; in test [9] it was 12.5 to 25 µg/mL; in test [10], 100 to 200 µg/mL; in test [11], more than 200 µg/mL; in test [13], 200 µg/mL; in [14], 200 µg/mL. In addition, the MIC in [16] is more than 200 µg/mL; in test [17] it was 50 to 100 µg/mL; in test [18] it was more than 200 µg/mL; in test [19] (H37RV, read-out: MIC H37Rv) it was 200 µg/mL. In addition, the zone of inhibition at 4 µg/disc in [4] turned out to be 12 mm; in test [12] it was 0 mm; in test [15], 6 mm.

Regarding `CN[C@@H]1[C@H](O)[C@H](NC)[C@H]2O[C@]3(O)[C@H](O[C@@H]2[C@H]1O)O[C@H](C)C[C@@]3(O)CNc1ccccc1` [compound 30, 3′-(R)-3′-(phenylaminomethyl)dihydrospectinomycin Trihydrochloride], the MIC in test [1] was not below 200 µg/mL; in [2], more than 200 µg/mL; in [3] it was 12.5 to 25 µg/mL; in [5], more than 200 µg/mL; in [6], 100 to 200 µg/mL; in test [7], more than 200 µg/mL. In addition, the MIC was more than 200 µg/mL in [8] (setting [25]); 12.5 to 25 µg/mL in test [9]; 200 µg/mL in test [10]; more than 200 µg/mL in test [11]; not below 200 µg/mL in test [13]; more than 200 µg/mL in [14]. Moreover, the MIC in test [16] was more than 200 µg/mL; in test [17] it was 50 µg/mL; in test [18], more than 200 µg/mL; in test [19] (H37RV, read-out: MIC H37Rv) it was more than 200 µg/mL. Also, the zone of inhibition at 4 µg/disc in test [4] was 7 mm; in test [20], 6 mm; in [12], 0 mm; in test [15] it was 6 mm.

Take `CN[C@@H]1[C@H](O)[C@H](NC)[C@H]2O[C@]3(O)[C@H](O[C@@H]2[C@H]1O)O[C@H](C)C[C@@]3(O)CNCCc1ccncc1` [compound 63, 3′-(R)-3′-[((2-(pyridin-4-yl)ethyl)aminomethyl]dihydrospectinomycintetrahydrobromide]: the MIC in test [2], in test [6], in test [7], in [8] (setting [25]), in test [8] (setting [26]) and in test [14] was more than 200 µg/mL each time. The MIC is 100 µg/mL in test [21]; more than 200 µg/mL in test [16]; 12.5 µg/mL in [22]; more than 200 µg/mL in test [23]; 25 µg/mL in [19] (H37RV, read-out: MIC H37Rv); 25 µg/mL in [19] (read-out: MIC TN022). Also, in test [19] (read-out: MIC TN026), the MIC is 25 µg/mL.

In the case of `CN[C@@H]1[C@H](O)[C@H](NC)[C@H]2O[C@]3(O)[C@H](O[C@@H]2[C@H]1O)O[C@H](C)C[C@@]3(O)CNc1ccc(OC)cc1` [compound 29, 3′-(R)-3′-[(4-methoxy)phenylaminomethyl)]dihydrospectinomycin Trihydrochloride], the MIC in test [1] was 200 µg/mL; in test [2] it was not below 200 µg/mL; in test [3], 25 µg/mL; in [5] it was more than 200 µg/mL; in test [6] it was 100 to 200 µg/mL; in test [7] it was more than 200 µg/mL. For the same compound, the MIC in test [9] was more than 200 µg/mL; in test [10], not below 200 µg/mL; in test [11] it was more than 200 µg/mL; in test [13], 200 µg/mL; in [14] it was 200 µg/mL; in test [16] it was more than 200 µg/mL. For the same compound, the MIC is 50 µg/mL in [17]; more than 200 µg/mL in test [18]; more than 200 µg/mL in test [19] (H37RV, read-out: MIC H37Rv). The zone of inhibition at 4 µg/disc in [4] came out at 12 mm; in [20] it was 7 mm; in [12], 0 mm; in test [15], 7 mm.

As for `CN[C@@H]1[C@H](O)[C@H](NC)C2O[C@]3(O)C(OC2[C@H]1O)O[C@H](C)C[C@@]3(O)CNCc1cccc(O)c1` (stereo partly shown) [compound 35], the MIC in test [1] is 6.3 µg/mL (≈ 13.4 µM); in [2], more than 200 µg/mL; in [3], 0.4 to 0.8 µg/mL (≈ 0.852 to 1.7 µM); in [5] it was not below 200 µg/mL; in test [24], 12.5 µg/mL (≈ 26.6 µM); in test [6], 25 µg/mL (≈ 53.2 µM). For the same compound, the MIC was more than 200 µg/mL in [7]; more than 200 µg/mL in test [8] (setting [25]); 0.8 to 1.6 µg/mL (≈ 1.7 to 3.41 µM) in test [9]; 200 µg/mL (≈ 426 µM) in [10]; more than 200 µg/mL in test [11]; 25 µg/mL (≈ 53.2 µM) in test [13]. For the same compound, the MIC in test [14] was 25 to 50 µg/mL (≈ 53.2 to 106 µM); in [16] it was 25 to 50 µg/mL (≈ 53.2 to 106 µM); in [17], 6.3 to 12.5 µg/mL (≈ 13.4 to 26.6 µM); in test [18] it was not below 200 µg/mL; in [19] (H37RV, read-out: MIC H37Rv), 50 µg/mL (≈ 106 µM). The zone of inhibition at 4 µg/disc was 16 mm in test [4], 18 mm in [20], 30 mm in test [12] and 15 to 16 mm in test [15].

With `CN[C@@H]1[C@H](O)[C@H](NC)[C@H]2O[C@]3(O)[C@H](O[C@@H]2[C@H]1O)O[C@H](C)C[C@]3(O)CNCCc1ccccc1` [compound 27, 3′-(S)-3′-(phenethylaminomethyl)dihydrospectinomycin Trihydrochloride], the MIC was more than 200 µg/mL in test [1]; not below 200 µg/mL in test [2]; 50 to 100 µg/mL in test [3]; more than 200 µg/mL in [5]; more than 200 µg/mL in [24]; more than 200 µg/mL in [6]. In addition, the MIC in test [7] was more than 200 µg/mL; in test [8] (setting [25]) it was 200 µg/mL; in [8] (setting [26]), more than 200 µg/mL; in test [9] it was more than 200 µg/mL; in [10] it was 50 to 100 µg/mL; in [11] it was more than 200 µg/mL. Further, the MIC is not below 200 µg/mL in [13]; more than 200 µg/mL in test [14]; more than 200 µg/mL in test [16]; 25 to 50 µg/mL in test [17]; more than 200 µg/mL in test [18]; more than 200 µg/mL in test [23]. Further, the MIC in test [19] (H37RV, read-out: MIC H37Rv) is 200 µg/mL. The zone of inhibition at 4 µg/disc in [4] stood at 7 mm; in test [20], 0 mm; in [12], 0 mm; in [15], 0 mm.
